Values after ≈ are worked out from the molar mass of the structure shown.
Experiments:
Type in all cases: functional
Escherichia coli [1] = assay: Antibacterial activity against Escherichia coli +polymyxin (Ec+)
Escherichia coli [2] = assay: Antibacterial activity against Escherichia coli (Ec)
Bacillus subtilis = assay: Antibacterial activity against Bacillus subtilis (Bs)
Staphylococcus aureus = assay: Antibacterial activity against methicillin resistant Staphylococcus aureus (MRSA)

SMILES | MIC (Escherichia coli [1]) [µg/mL] | MIC (Escherichia coli [2]) [µg/mL] | MIC (Bacillus subtilis) [µg/mL] | MIC (Staphylococcus aureus) [µg/mL]
FC(F)(F)c1nc(-c2cc(Cl)cc(Cl)c2)c(-c2cc(Cl)cc(Cl)c2)[nH]1 | 16 (≈ 37.6 µM) | > 32 | 4 (≈ 9.39 µM) | 0.25 (≈ 0.587 µM)
CSc1nc(-c2cc(Cl)cc(Cl)c2)c(-c2cc(Cl)cc(Cl)c2)[nH]1 | > 32 | > 32 | > 32 | > 32
Clc1cc(Cl)cc(-c2nc[nH]c2-c2cc(Cl)cc(Cl)c2)c1 | 8 (≈ 22.3 µM) | > 32 | 4 (≈ 11.2 µM) | > 32
CCNC(=O)c1nc(-c2cc(Cl)cc(Cl)c2)c(-c2cc(Cl)cc(Cl)c2)[nH]1 | > 32 | > 32 | > 32 | > 32
COC(=O)c1nc(-c2cc(Cl)cc(Cl)c2)c(-c2cc(Cl)cc(Cl)c2)[nH]1 | > 32 | > 32 | > 32 | > 32
Oc1nc(-c2cc(Cl)cc(Cl)c2)c(-c2cc(Cl)cc(Cl)c2)[nH]1 | 8 (≈ 21.4 µM) | > 32 | 4 (≈ 10.7 µM) | 8 (≈ 21.4 µM)
Cc1nc(-c2cc(Cl)cc(Cl)c2)c(-c2cc(Cl)cc(Cl)c2)[nH]1 | > 32 | > 32 | > 32 | > 32
CS(=O)(=O)c1nc(-c2cc(Cl)cc(Cl)c2)c(-c2cc(Cl)cc(Cl)c2)[nH]1 | 4 (≈ 9.17 µM) | > 32 | 4 (≈ 9.17 µM) | 4 (≈ 9.17 µM)
Nc1nc(-c2cc(Cl)cc(Cl)c2)c(-c2cc(Cl)cc(Cl)c2)[nH]1 | 8 (≈ 21.4 µM) | > 32 | 4 (≈ 10.7 µM) | 2 (≈ 5.36 µM)
FC(F)(F)c1nc(-c2cc(Cl)cc(Cl)c2)c[nH]1 | 8 (≈ 28.5 µM) | > 32 | 16 (≈ 56.9 µM) | 16 (≈ 56.9 µM)
Cn1c(C(F)(F)F)nc(-c2cc(Cl)cc(Cl)c2)c1-c1cc(Cl)cc(Cl)c1 | > 32 | > 32 | 4 (≈ 9.09 µM) | 8 (≈ 18.2 µM)
O=Cc1nc(-c2cc(Cl)cc(Cl)c2)c(-c2cc(Cl)cc(Cl)c2)[nH]1 | > 32 | > 32 | 2 (≈ 5.18 µM) | 2 (≈ 5.18 µM)
Sc1nc(-c2cc(Cl)cc(Cl)c2)c(-c2cc(Cl)cc(Cl)c2)[nH]1 | > 32 | > 32 | > 32 | > 32
